Assay results taken from patent publication US20260109732A1, “LIPID AMINES” (ModernaTX, Inc., priority 2021, published 2026).
Where a name gives a salt, the structure may show the parent alone.

Experiments:
[1] = Encapsulation of mRNA nanoparticles with lipid amines using Ribogreen assay; assay type: physicochemical; details: CFTR mRNA nanoparticle with lipid amine
Description: (§1) Lipids are dissolved in ethanol at a concentration of 24 mg/mL and molar ratios of 49.0:11.2:39.3:0.5 (IL1:DSPC:cholesterol:PEG-DMG-2K) and mixed with the acidification buffer (45 mM acetate buffer at pH 4). The lipid solution and acidification buffer are mixed using a multi-inlet vortex mixer at a 3:7 volumetric ratio of lipid:buffer for mixer 1 and mixer 2 and a 1:3 volumetric ratio of lipid:buffer (25% ethanol) for mixer 3. After a 5 second residence time, the resulting nanoparticles are mixed with 55 mM sodium acetate at pH 5.6 at a volumetric ratio of 5:7 of nanoparticle:buffer. See Table 2a for mixing parameters. The resulting dilute nanoparticles are then buffer exchanged and concentrated using tangential flow filtration (TFF) into a final buffer containing 5 mM sodium acetate pH 5.0. Then a 70% sucrose solution in 5 mM acetate buffer at pH 5 is subsequently added.
(§2) The resulting nanoparticles at a lipid concentration of 7.33 mg/mL in 5 mM acetate (pH 5) and 75 g/L sucrose are mixed with mRNA (luciferease or CFTR) at a concentration of 0.625 mg/mL in 42.5 mM sodium acetate pH 5.0, with N:P of 4.93. The nanoparticle solution and nanoparticles are mixed using a multi-inlet vortex mixer at a 3:2 volumetric ratio of nanoparticle:mRNA. Once loaded with mRNA, these intermediate nanoparticles undergo a 300 second residence time prior addition of neutralization buffer containing 120 mM TRIS pH 8.12 at a volumetric ratio of 5:1 of nanoparticle:buffer.
(§3) For HeLa studies evaluating luciferase protein expression, PEG-DMG-2K dissolved in a 20 mM TRIS buffer (pH 7.5) is added to the neutralized intermediate nanoparticle solution at a ratio of 1:6, bringing the solution to the final molar ratios of IL1:DSPC:cholesterol:PEG-DMG-2K of 48.5:11.1:38.9:1.5%. This nanoparticle formulation is then modified with lipid amines. In a typical example, nanoparticle formulation at a concentration of 0.18 mg/mL mRNA and a 0.56 mL volume is modified with lipid amine SA50 (467.2 nmol) prepared in buffer containing 20 mM TRIS, 14.3 mM sodium acetate, 32 g/L sucrose and 140 mM NaCl-pH 7.5 at a volumetric ratio of 1:1 of nanoparticle:buffer.
(§4) For HeLa studies evaluating CFTR protein expression, the intermediate nanoparticle formulation (1 mL, 0.415 mg mRNA) is mixed with a buffer containing 20 mM TRIS (pH 7.5), 0.9 mg/mL PEG-DMG-2K and lipid amine SA50 (647.1 nmol) at a volumetric ratio of 6:1 of nanoparticle:buffer. The resulting nanoparticle suspension undergoes concentration using a centrifugal filtration device (100 kDa molecular weight cut-off) and is diluted in running buffer (20 mM TRIS, 14.3 mM sodium acetate, and 32 g/L sucrose, pH 7.5) with a 300 mM NaCl solution to a final buffer matrix containing 70 mM NaCl.
(§5) Both resulting nanoparticle suspensions are filtered through a 0.8/0.2 μm capsule filter and filled into glass vials at an mRNA strength of about 0.1-1 mg/mLBliophysical data (Diameter and PDI from DLS measurements and Encapsualtion using Ribogreen assay) for both luciferase and CFTR mRNA nanoparticles with lipid amines is shown in Tables 2c and d, respectively.

[2] = Diameter and PDI from DLS measurements of mRNA nanoparticles with lipid amines; assay type: physicochemical; details: CFTR mRNA nanoparticle with lipid amine
Description: as §1, §2, §3, §4, §5

HeLa cells = experiment: CFTR Protein Expression Assay in HeLa Cells; assay type: cell-based, Human; details: LNPs encapsulating CFTR mRNA, N=4 wells; 5 h serum-free then 24 h; immunofluorescence vs PBS control
Description: as §4
Lipid nanoparticle compositions were prepared in a manner analogous to that in example 2. To evaluate LNP cellular uptake and protein expression In Vitro, HeLa cells from ATCC.org (ATCC CCL-2) are used. The cells are cultured in complete Minimum Essential Medium (MVEM) and are plated in 96 well Cell Carrier Ultra plate with PDL coated surface (PerkinElmer) prior to running an experiment.
Buffer control (PBS) and LNPs encapsulating cystic fibrosis transmembrane conductance regulator (CFTR) mRNA were dosed with MEM media in the absence of serum (N=4 replicate wells). LNP transfected cells were incubated for 5 h, followed by media removal and supplementation with complete MEM media. Cells were further incubated in complete MEM media overnight (24 h).
Following 24 hr incubation, the cells were fixed with PFA and processed for immunofluorescence (IF) using an anti-CFTR rabbit monoclonal antibody. Briefly, the cells were permeabilized with 0.5% TX-100 for 10 min, blocked with 3% bovine serum albumin (BSA)+PBST for 1 hr at room temperature, and incubated with primary anti-CFTR monoclonal antibody overnight at 4° C. Following primary antibody incubation, the cells were incubated with Alexa 488 conjugated secondary antibody for 30 mi and stained with DAPI and HCS CellMask Blue stain. Between different incubation steps the cells were either washed with PBS or PBST. Cells were imaged using Opera Phoenix spinning disk confocal microscope (PerkinElmer), and CFTR protein expression was detected using the 488 nm channel. The image analysis was performed in Harmony 4.9, with main analysis output being CFTR intensity per cell. The results shown in Table 3b show fold-change in CFTR signal intensity per cell compared to buffer (PBS) control (NA=not available).

| Structure (SMILES) | % Encapsulation (Ribogreen) [1] | Diameter (nm) [2] | PDI [2] | Average fold-change in CFTR signal intensity per cell compared to buffer control ± standard deviation (HeLa cells) |
| --- | --- | --- | --- | --- |
| CC(C)CCC[C@@H](C)[C@H]1CC[C@H]2[C@@H]3CC=C4C[C@@H](OC(=O)N(CCCCOCCCN(C)C)CCCN(C)C)CC[C@]4(C)[C@H]3CC[C@]12C [SA67, (3S,8S,9S,10R,13R,14S,17R)-10,13-dimethyl-17-((R)-6-methylheptan-2-yl)-2,3,4,7,8,9,10,11,12,13,14,15,16,17-tetradecahydro-1H-cyclopenta[a]phenanthren-3-yl (4-(3-(dimethylamino)propoxy)butyl)(3-(dimethylamino)propyl)carbamate] | 99.2% | 72.8 nm | 0.10 | 7.7 ± 0.7 fold-change |
| CC(C)CCC[C@@H](C)[C@H]1CC[C@H]2[C@@H]3CC=C4C[C@@H](OC(=O)CC(=O)N(CCCN(C)C)CCCN(C)C)CC[C@]4(C)[C@H]3CC[C@]12C.Cl.Cl [SA50, (3S,8S,9S,10R,13R,14S,17R)-10,13-Dimethyl-17-((R)-6-methylheptan-2-yl)-2,3,4,7,8,9,10,11,12,13,14,15,16,17-tetradecahydro-1H-cyclopenta[a]phenanthren-3-yl 3-(bis(3-(dimethylamino)propyl)amino)-3-oxopropanoate dihydrochloride] | 99.3% | 77.1 nm | 0.11 | 7.1 ± 0.4 fold-change |
| CC(C)CCC[C@@H](C)[C@H]1CC[C@H]2[C@@H]3CC=C4C[C@@H](OC(=O)[C@H](C)N(CCCN)CCCCNCCCN)CC[C@]4(C)[C@H]3CC[C@]12C [SA73, (3S,8S,9S,10R,13R,14S,17R)-10,13-Dimethyl-17-((R)-6-methylheptan-2-yl)-2,3,4,7,8,9,10,11,12,13,14,15,16,17-tetradecahydro-1H-cyclopenta[a]phenanthren-3-yl N-(3-aminopropyl)-N-(4-((3-aminopropyl)amino)butyl)alaninate trihydrochloride] | 100% | 92.8 nm | 0.16 | 9.4 ± 0.6 fold-change |
| CC(C)CCC[C@@H](C)[C@H]1CC[C@H]2[C@@H]3CC=C4C[C@@H](OC(=O)CCCC(=O)N(CCCN(C)C)CCCN(C)C)CC[C@]4(C)[C@H]3CC[C@]12C.Cl.Cl [SA51, (3S,8S,9S,10R,13R,14S,17R)-10,13-Dimethyl-17-((R)-6-methylheptan-2-yl)-2,3,4,7,8,9,10,11,12,13,14,15,16,17-tetradecahydro-1H-cyclopenta[a]phenanthren-3-yl 5-(bis(3-(dimethylamino)propyl)amino)-5-oxopentanoate dihydrochloride] | 98.4% | 74.3 nm | 0.15 | 6.5 ± 0.4 fold-change |
| CC(C)CCC[C@@H](C)[C@H]1CC[C@H]2[C@@H]3CC=C4C[C@@H](OC(=O)CN(CCCN)CCCCNCCCN)CC[C@]4(C)[C@H]3CC[C@]12C (stereo in doubt) [SA65, ((3S,8S,9S,10R,13R,14S,17R)-10,13-dimethyl-17-((R)-6-methylheptan-2-yl)-2,3,4,7,8,9,10,11,12,13,14,15,16,17-tetradecahydro-1H-cyclopenta[a]phenanthren-3-yl N-(3-aminopropyl)-N-(4-((3-aminopropyl)amino)butyl)glycinatetetrahydrochloride] | 99.6% | 78.0 nm | 0.14 | 5.9 ± 0.5 fold-change |
| CC(C)CCC[C@@H](C)[C@H]1CC[C@H]2[C@@H]3CC=C4C[C@@H](OC(=O)N(CCCCCCCCN(C)C)CCCN(C)C)CC[C@]4(C)[C@H]3CC[C@]12C [SA64, (3S,8S,9S,10R,13R,14S,17R)-10,13-dimethyl-17-((R)-6-methylheptan-2-yl)-2,3,4,7,8,9,10,11,12,13,14,15,16,17-tetradecahydro-1H-cyclopenta[a]phenanthren-3-yl (8-(dimethylamino)octyl)(3-(dimethylamino)propyl)carbamate] | 99.1% | 67.8 nm | 0.09 | 9.1 ± 0.6 fold-change |
| CC(C)CCC[C@@H](C)[C@H]1CC[C@H]2[C@@H]3CC=C4C[C@@H](OC(=O)CCCC(=O)N(CCCCNCCC(C)(C)N)CCC(C)(C)N)CC[C@]4(C)[C@H]3CC[C@]12C [SA121, (3S,8S,9S,10R,13R,14S,17R)-10,13-dimethyl-17-((R)-6-methylheptan-2-yl)-2,3,4,7,8,9,10,11,12,13,14,15,16,17-tetradecahydro-1H-cyclopenta[a]phenanthren-3-yl 5-((3-amino-3-methylbutyl)(4-((3-amino-3-methylbutyl)amino)butyl)amino)-5-oxopentanoate trihydrochloride] | 97.4% | 79.2 nm | 0.14 | 16.2 ± 1.8 fold-change |
| CC(C)CCC[C@@H](C)[C@H]1CC[C@H]2[C@@H]3CC=C4C[C@@H](OC(=O)N(CCCCN(C)CCCN(C)C)CCCN(C)C)CC[C@]4(C)[C@H]3CC[C@]12C [SA68, (3S,8S,9S,10R,13R,14S,17R)-10,13-dimethyl-17-((R)-6-methylheptan-2-yl)-2,3,4,7,8,9,10,11,12,13,14,15,16,17-tetradecahydro-1H-cyclopenta[a]phenanthren-3-yl (3-(dimethylamino)propyl)(4-((3-(dimethylamino)propyl)(methyl)amino)butyl)carbamate] | 99.2% | 74.6 nm | 0.12 | 8.9 ± 0.4 fold-change |
